Legend:
[1] = tested on: hepatocyte cell line (HepG2); test: In vitro assay of gene expression in hepatocyte cell line; format: cell-based, human; conditions: HepG2, 24 h; Histidine 10 mM, carnosine 5 mM, cysteine 5 mM, serine 5 mM; vs. control
Experimental: These concentrations were conserved with the different combinations. Data are expressed as mean±SEM; n=3-4 per condition. *p<0.05; **p<0.01, ***p<0.001 vs. vehicle.
An in vitro assay was also carried out using the hepatocyte cell line (HepG2) to test the effect of different combinations of the supplemented amino acids in hepatic expression of key genes of fatty acid beta-oxidation (carnitine palmitoyltransferase, Cpt1a), inflammation (chemokine (C-C motif) ligand 2, CCL2), lipolysis (hormone-sensitive, HSL; and lipin, LPIN) and lipogenesis (fatty acid synthase, FASN). Gene expression was determined by qPCR as previously indicated (see materials and methods in example 1). […] The Cpt1a enzyme is located in the outer membrane, and it is the key enzyme in the carnitine-dependent transport across the mitochondrial inner membrane. Its deficiency results in a decreased rate of fatty acid beta-oxidation.
Data are depicted in FIG. 7, wherein the level of expression (mRNA) is indicated for any of the supplemented media. […]

[2] = tested on: mice consumed high saturated fat diet; conditions: Mong et al.; cited from earlier work

| SMILES | Cpt1a mRNA expression (the cited enzyme) [1] | body weight [2] | epididymal fat [2] | hepatic cholesterol levels [2] | hepatic triglyceride levels [2] | hyper-insulinemia [2] | insulin sensitivity [2] |
| --- | --- | --- | --- | --- | --- | --- | --- |
| NCCC(=O)N[C@@H](Cc1cnc[nH]1)C(=O)O [carnosine] | trend to reduce the effect | lowered | lowered | lowered | lowered | attenuated | improved |
| N[C@@H](Cc1c[nH]cn1)C(=O)O [histidine] |  | lowered | lowered | lowered | lowered | attenuated | improved |

Reference: patent US20250268855A1, “PHARMACEUTICAL AND NUTRACEUTICAL COMPOSITIONS WITH A COMBINATION OF AMINO ACIDS AND ITS USE IN DISEASES CHARACTERIZED BY LIPID ACCUMULATION IN TISSUES” (FUNDACIÓ EURECAT, priority 2022, published 2025)
